According to ChEMBL document CHEMBL5465560, “Selectivity Literature for EUbOPEN Chemogenomic Library” (2024):
Values belong to the compound of their own block, whether it stands above or below them.

Assays:
[1] = molecular target: Phosphatidylinositol 4-phosphate 5-kinase type-1 gamma (Homo sapiens) (UniProt O60331); conditions: at 10 µM
[2] = molecular target: Tyrosine-protein kinase FRK (Homo sapiens) (UniProt P42685); conditions: at 10 µM
[3] = molecular target: Epithelial discoidin domain-containing receptor 1 (Homo sapiens) (UniProt Q08345); conditions: at 10 µM
[4] = molecular target: Serine/threonine-protein kinase SIK3 (Homo sapiens) (UniProt Q9Y2K2); assay: Selectivity interaction (Ambit KINOMEscan and KiNATiv profiling in Jurkat cells) EUB0000090b SIK3; type: cell-based; conditions: at 1 µM
Serine/threonine-protein kinase SIK3 (Homo sapiens), sequence (Q9Y2K2 whole entry, looked up): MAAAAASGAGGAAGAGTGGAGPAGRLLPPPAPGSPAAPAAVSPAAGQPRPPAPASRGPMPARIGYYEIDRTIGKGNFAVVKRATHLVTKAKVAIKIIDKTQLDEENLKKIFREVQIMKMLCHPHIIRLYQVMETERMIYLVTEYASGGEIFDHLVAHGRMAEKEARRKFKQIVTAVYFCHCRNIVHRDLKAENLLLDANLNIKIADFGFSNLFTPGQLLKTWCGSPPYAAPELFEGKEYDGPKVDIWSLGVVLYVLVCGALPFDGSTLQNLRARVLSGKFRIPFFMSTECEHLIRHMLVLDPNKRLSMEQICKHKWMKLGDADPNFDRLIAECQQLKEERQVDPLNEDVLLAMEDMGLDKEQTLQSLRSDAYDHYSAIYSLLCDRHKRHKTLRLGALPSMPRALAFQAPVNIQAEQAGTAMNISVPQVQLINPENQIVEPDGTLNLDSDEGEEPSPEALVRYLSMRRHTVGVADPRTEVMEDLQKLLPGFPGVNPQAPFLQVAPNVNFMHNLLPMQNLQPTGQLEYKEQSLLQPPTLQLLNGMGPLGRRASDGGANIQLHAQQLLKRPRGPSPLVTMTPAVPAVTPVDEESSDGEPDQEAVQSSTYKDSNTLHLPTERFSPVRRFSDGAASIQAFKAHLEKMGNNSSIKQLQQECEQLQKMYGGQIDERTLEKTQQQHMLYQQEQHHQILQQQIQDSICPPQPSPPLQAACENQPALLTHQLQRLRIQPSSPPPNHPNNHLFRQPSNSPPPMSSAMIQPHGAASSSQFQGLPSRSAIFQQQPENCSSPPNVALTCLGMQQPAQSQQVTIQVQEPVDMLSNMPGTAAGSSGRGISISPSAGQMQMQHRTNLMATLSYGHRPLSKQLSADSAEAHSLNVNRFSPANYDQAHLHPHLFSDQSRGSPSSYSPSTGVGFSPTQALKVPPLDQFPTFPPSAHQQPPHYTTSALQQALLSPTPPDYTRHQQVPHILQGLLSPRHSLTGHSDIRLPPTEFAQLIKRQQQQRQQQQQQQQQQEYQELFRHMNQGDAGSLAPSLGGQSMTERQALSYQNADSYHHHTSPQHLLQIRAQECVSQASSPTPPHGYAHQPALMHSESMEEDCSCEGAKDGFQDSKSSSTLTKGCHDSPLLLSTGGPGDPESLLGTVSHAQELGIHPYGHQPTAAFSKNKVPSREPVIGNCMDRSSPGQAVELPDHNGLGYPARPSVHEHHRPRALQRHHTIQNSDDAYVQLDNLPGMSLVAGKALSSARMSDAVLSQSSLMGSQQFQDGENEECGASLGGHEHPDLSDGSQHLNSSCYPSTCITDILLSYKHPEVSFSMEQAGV

[5] = molecular target: Protein kinase C beta type (Homo sapiens, UniProt P05771); assay: Selectivity interaction (Kinase panel (Invitrogen)) EUB0000639a PRKCB; conditions: at 200 nM
Protein kinase C beta type, sequence (P05771 2-671 limits assumed): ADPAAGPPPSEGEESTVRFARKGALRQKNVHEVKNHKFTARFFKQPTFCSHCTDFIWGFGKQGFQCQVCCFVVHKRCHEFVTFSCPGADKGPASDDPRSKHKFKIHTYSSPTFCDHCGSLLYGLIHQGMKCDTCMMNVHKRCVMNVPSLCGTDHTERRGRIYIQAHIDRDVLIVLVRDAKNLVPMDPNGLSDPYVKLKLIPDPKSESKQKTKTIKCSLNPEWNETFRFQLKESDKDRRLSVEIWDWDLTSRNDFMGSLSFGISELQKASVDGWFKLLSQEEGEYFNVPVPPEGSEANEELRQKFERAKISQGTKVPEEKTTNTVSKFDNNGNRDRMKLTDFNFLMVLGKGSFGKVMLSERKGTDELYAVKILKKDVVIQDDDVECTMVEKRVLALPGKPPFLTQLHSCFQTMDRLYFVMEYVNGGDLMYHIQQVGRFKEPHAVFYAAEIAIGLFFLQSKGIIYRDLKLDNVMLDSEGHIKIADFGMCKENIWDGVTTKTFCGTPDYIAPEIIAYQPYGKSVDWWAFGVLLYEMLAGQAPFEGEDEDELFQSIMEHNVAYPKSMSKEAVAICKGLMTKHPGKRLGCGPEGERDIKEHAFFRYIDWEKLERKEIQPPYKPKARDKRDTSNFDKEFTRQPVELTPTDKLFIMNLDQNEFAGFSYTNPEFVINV

[6] = molecular target: Serine/threonine-protein kinase 24 (Homo sapiens) (UniProt Q9Y6E0); assay: Selectivity interaction (ActivX KiNativ screen (kinase selectivity in THP-1 cell lysates)) EUB0000639a STK24; type: subcellular; conditions: lysate, at 0.01 µM
[7] = molecular target: Serine/threonine-protein kinase MARK2 (Homo sapiens) (UniProt Q7KZI7); assay: Selectivity interaction (ActivX KiNativ screen (kinase selectivity in THP-1 cell lysates)) EUB0000639a MARK2; type: subcellular; conditions: lysate, at 1 µM
[8] = molecular target: Transcription initiation factor TFIID subunit 1 (Homo sapiens) (UniProt P21675); assay: Selectivity interaction (Bromodomain panel (DSF asssay)) EUB0000270b TAF1
Aurora kinase B = Aurora kinase B (Homo sapiens, UniProt Q96GD4); assay: Selectivity interaction (Enzymatic assay) EUB0001199aCl AURKB
Aurora kinase B, sequence (Q96GD4 whole entry): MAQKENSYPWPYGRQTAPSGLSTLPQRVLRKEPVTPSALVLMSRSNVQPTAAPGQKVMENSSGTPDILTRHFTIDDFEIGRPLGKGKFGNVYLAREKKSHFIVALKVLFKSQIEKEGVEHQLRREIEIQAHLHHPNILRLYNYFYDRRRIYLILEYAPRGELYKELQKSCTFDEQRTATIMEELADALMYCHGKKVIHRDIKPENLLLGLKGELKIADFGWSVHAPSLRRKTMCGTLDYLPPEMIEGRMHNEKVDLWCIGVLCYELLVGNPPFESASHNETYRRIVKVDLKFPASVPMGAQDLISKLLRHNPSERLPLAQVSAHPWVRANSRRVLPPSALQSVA

[9] = molecular target: T1, Serine/threonine-protein kinase 36 (Homo sapiens) (UniProt Q9NRP7); conditions: at 10 µM
T1 sequence (whole entry): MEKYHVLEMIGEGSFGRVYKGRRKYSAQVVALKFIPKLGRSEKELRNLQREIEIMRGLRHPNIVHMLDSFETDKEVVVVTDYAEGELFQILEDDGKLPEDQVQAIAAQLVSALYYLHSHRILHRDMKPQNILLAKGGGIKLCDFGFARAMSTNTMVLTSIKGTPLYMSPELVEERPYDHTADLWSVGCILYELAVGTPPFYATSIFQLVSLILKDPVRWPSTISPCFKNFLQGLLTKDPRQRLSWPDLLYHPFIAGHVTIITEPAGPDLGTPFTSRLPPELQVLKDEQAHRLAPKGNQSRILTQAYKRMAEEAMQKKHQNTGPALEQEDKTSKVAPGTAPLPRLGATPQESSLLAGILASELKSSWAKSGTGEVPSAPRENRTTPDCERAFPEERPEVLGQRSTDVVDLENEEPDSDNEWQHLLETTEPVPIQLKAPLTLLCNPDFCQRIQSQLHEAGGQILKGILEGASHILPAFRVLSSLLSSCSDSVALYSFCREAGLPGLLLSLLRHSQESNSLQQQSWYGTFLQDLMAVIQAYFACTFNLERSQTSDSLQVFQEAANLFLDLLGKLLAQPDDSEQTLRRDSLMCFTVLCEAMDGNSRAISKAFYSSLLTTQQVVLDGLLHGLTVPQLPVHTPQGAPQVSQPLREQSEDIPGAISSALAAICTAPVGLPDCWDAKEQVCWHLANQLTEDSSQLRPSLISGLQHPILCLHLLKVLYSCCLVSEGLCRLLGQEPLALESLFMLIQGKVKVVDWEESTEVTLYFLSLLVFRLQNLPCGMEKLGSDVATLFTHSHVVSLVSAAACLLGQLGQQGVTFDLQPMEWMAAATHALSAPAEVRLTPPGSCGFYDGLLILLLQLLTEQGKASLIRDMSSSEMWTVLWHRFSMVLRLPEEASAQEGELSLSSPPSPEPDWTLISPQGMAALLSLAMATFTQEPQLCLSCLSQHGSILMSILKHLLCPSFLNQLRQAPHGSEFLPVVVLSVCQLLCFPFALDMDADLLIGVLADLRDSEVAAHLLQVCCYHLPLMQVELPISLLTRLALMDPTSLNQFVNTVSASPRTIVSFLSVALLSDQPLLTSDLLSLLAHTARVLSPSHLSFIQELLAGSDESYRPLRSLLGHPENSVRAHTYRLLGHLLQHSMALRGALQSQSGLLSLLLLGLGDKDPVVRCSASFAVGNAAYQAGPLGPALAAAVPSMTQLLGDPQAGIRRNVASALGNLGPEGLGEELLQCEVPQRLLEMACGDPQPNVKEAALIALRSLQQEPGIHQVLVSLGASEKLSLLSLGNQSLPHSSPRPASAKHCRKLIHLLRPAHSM

[10] = molecular target: MAP/microtubule affinity-regulating kinase 3 (Homo sapiens) (UniProt P27448); conditions: at 10 µM
[11] = molecular target: Serine/threonine-protein kinase 38 (Homo sapiens) (UniProt Q15208); assay: Selectivity interaction (KinomeScan (DiscoverX)) EUB0000595a STK38; conditions: at 10 µM
[12] = molecular target: Bone morphogenetic protein receptor type-1A (Homo sapiens, UniProt P36894); assay: Selectivity interaction (ProQinase) EUB0000171b BMPR1A
Bone morphogenetic protein receptor type-1A, sequence (P36894 whole entry): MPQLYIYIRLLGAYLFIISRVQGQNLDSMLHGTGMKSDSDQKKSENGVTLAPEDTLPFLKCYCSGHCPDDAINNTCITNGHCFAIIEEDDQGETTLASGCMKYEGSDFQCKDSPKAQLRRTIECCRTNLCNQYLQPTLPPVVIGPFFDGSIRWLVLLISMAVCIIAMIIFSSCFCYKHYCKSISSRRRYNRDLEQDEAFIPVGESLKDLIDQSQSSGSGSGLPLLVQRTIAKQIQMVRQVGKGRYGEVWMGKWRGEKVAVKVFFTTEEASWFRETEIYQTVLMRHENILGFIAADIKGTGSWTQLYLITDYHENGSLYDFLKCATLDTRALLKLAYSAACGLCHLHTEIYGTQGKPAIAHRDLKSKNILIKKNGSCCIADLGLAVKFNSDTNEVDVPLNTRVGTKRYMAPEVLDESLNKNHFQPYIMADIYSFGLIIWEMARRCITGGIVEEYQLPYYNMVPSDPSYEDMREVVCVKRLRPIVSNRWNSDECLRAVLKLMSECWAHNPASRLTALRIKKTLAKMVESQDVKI

[13] = molecular target: Serine/threonine-protein kinase 38-like (Homo sapiens) (UniProt Q9Y2H1); assay: Selectivity interaction (KinomeScan (DiscoverX)) EUB0000655a STK38L; conditions: at 10 µM
[14] = molecular target: Serine/threonine-protein kinase SIK2 (Homo sapiens) (UniProt Q9H0K1); assay: Selectivity interaction (KinomeScan (DiscoverX)) EUB0000618a SIK2; conditions: at 10 µM
Serine/threonine-protein kinase SIK2 (Homo sapiens), sequence (Q9H0K1 whole entry, looked up): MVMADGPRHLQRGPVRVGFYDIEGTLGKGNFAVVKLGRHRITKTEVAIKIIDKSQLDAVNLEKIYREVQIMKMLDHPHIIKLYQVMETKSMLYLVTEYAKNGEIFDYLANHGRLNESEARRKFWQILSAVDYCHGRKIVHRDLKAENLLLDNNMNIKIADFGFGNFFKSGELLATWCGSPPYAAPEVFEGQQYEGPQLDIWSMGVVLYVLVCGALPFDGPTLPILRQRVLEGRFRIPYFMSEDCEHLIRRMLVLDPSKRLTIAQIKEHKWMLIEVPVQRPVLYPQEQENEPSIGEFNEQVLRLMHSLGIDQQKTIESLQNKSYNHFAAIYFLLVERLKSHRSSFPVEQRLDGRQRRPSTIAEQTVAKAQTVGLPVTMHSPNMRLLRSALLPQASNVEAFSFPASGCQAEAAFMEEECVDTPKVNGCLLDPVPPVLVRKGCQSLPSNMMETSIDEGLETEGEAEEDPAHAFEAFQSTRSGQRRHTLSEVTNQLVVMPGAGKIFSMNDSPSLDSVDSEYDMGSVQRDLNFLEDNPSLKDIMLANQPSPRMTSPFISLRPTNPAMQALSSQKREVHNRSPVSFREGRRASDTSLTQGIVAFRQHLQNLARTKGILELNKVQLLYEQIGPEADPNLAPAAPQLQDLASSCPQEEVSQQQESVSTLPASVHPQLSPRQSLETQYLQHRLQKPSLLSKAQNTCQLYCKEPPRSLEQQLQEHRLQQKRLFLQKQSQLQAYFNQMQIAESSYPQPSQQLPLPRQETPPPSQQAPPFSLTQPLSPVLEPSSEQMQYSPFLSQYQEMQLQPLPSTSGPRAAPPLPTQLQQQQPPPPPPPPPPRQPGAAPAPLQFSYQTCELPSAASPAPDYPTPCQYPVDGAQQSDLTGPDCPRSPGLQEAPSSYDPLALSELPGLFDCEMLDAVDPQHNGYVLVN

[15] = molecular target: RAC-alpha serine/threonine-protein kinase (Homo sapiens, UniProt P31749); assay: Selectivity interaction (Kinase panel (KiNativ target engagement assay in Jurkat cells)) EUB0001635a AKT1; type: cell-based; conditions: at 1 µM
RAC-alpha serine/threonine-protein kinase, sequence (P31749 whole entry): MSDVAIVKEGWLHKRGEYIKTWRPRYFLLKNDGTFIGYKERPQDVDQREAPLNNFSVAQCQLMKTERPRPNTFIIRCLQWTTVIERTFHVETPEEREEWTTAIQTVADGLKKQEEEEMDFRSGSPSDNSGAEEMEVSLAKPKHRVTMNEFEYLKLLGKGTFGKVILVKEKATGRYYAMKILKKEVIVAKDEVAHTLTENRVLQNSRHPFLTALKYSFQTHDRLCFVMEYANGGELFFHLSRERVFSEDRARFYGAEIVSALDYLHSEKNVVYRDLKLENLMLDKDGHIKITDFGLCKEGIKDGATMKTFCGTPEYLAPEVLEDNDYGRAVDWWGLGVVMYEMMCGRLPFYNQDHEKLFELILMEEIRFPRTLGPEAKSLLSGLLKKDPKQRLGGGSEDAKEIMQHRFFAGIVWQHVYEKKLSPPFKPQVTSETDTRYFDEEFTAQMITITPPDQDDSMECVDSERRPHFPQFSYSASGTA

[16] = molecular target: Serine/threonine-protein kinase NIM1 (Homo sapiens, UniProt Q8IY84); assay: Selectivity interaction (KinomeScan (DiscoverX)) EUB0000666a NIM1K; conditions: at 10 µM
[17] = molecular target: Cyclin-dependent kinase-like 1 (Homo sapiens) (UniProt Q00532); assay: Selectivity interaction (KinomeScan (DiscoverX)) EUB0000666a CDKL1; conditions: at 10 µM
Cyclin-dependent kinase-like 1 (Homo sapiens), sequence (Q00532 whole entry): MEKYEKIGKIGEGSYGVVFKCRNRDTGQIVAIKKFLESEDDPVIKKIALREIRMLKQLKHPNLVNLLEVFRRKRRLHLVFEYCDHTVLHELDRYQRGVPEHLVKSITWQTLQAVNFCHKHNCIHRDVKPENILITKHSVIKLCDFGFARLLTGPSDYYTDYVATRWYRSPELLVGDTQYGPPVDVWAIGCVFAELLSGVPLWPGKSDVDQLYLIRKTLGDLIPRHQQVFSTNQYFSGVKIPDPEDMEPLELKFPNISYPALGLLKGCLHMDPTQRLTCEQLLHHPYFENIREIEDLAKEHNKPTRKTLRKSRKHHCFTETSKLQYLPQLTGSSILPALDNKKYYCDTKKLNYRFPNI

[18] = molecular target: Cyclin-dependent kinase 9 (Homo sapiens, UniProt P50750); assay: Selectivity interaction (Z-Lyte kinase biochemical assay, conc. ATP = Km(app), Thermo Fisher Scientific) EUB0001558a CDK9
Cyclin-dependent kinase 9, sequence (P50750 whole entry): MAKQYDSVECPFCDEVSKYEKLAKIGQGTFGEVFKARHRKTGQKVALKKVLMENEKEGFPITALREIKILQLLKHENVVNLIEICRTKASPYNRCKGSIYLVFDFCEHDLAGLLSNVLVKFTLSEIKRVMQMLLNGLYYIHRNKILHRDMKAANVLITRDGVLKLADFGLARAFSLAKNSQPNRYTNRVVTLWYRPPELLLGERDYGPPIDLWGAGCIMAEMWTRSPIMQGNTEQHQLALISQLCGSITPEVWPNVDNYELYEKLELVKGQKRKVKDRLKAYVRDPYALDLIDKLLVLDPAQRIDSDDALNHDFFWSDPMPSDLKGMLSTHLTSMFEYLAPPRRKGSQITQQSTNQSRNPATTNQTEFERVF

Compound: Cc1cc([C@@H](C)Nc2ccccc2C(=O)O)c2nc(N3CCOCC3)cc(=O)n2c1 [AZD-6482]
% of control [1]: 63%
% of control [2]: 83%
% of control [3]: 100%

Compound: CN(C)C/C=C/C(=O)Nc1ccc(C(=O)N2CCCC(Nc3ncc(Cl)c(-c4c[nH]c5ccccc45)n3)C2)cc1 (stereo not given)
% of control [4]: 99%

% of inhibition [5]: 6.06%
% of inhibition [6]: 3.8%
% of inhibition [7]: 4.3%
Compound: CC[C@@H]1[C@H](F)C(=O)N[C@@H]1COc1nccc2cc(C(N)=O)c(OC)cc12 [ZIMLOVISERTIB]

dTM [8]: -1.17 K
Compound: Cc1cc(CN)cc(C)c1-c1ncn(C)c1-c1cncn1C

IC50 (Aurora kinase B): 10.2 µM
Compound: CN1Cc2nccc(-c3cn(C)nc3-c3ccc(F)cc3)c2C1=O

% of control [9]: 100%
% of control [10]: 100%
Compound: CCN(CC)CCCCNc1ncc2cc(-c3cc(OC)cc(OC)c3)c(NC(=O)NC(C)(C)C)nc2n1

Compound: COCC(=O)NC/C=C/c1ccc2ncnc(Nc3ccc(Oc4ccc(C)nc4)c(C)c3)c2c1 [CP-724714]
% of control [11]: 73%

% of control ([12]; at 1 µM): 83%
% of control ([12]; at 5 µM): 88%
Compound: C=CC(=O)Nc1cccc(C(=O)Nc2ccc(Nc3cc(-c4[nH]c(SC)nc4C)ccn3)cc2)c1

Compound: CN(C)CCOc1ccc(-c2nc(-c3ccncc3)c(-c3ccc4c(c3)CC/C4=N\O)[nH]2)cc1
% of control [13]: 100%

Compound: O[C@H]1CC[C@H](Nc2ncc3nc(Nc4c(F)cc(F)cc4F)n([C@H]4CCOC4)c3n2)CC1
% of control [14]: 33%

Compound: C=CC(=O)Nc1ccc(C(=O)Nc2[nH]nc3c2CN(C(=O)N[C@H](CN(C)C)c2ccccc2)C3(C)C)cc1
% of engagement [15]: -9.9%

Compound: O=C(NOC[C@H](O)CO)c1ccc(F)c(F)c1Nc1ccc(I)cc1F
% of control [16]: 100%
% of control [17]: 78%

Compound: CC(C)(O)[C@H](F)CN1Cc2cc(NC(=O)c3cnn4cccnc34)c(N3CCOCC3)cc2C1=O
IC50 [18]: 0.966 µM
